Source: publication PMC7316778 (Nature Communications, 2020)
“And” between values parts separate entries of the source, which are not always exact repeats. Equal entries are not always repeated. Where two headings read alike, the source gives them in different places.

Assays:
[1] = tested on: panel of 380 wild-type, mammalian kinases; assay: SelectScreen selectivity profiling, whole panel; type: biochemical
Description: Supplementary Figure 4. Single-point selectivity screen of WEL028 on a panel of 380 kinases. All data were obtained from SelectScreen™ selectivity profiling service. Assays were performed at 1 μM WEL028 with 1 h preincubation. The ATP concentration was equal to the kinase K M, except for those indicated († = LanthaScreen technology, no ATP; * = 100 µM ATP; ** = 10 µM ATP). Values represent mean percentage inhibition compared to vehicle -treated control (n = 2). […]
inhibition from minimum (0%, white) to maximum (100%, red). Source data are provided as a Source

AKT1 (PKB alpha) = AKT1 (PKB alpha) (Homo sapiens, UniProt P31749); assay: SelectScreen kinase assay; settings: for Inhibition at 1 µM (%): AKT1 (PKB alpha), ZLYTE, ATP Km app
Chain of AKT1 (PKB alpha) (P31749 whole entry): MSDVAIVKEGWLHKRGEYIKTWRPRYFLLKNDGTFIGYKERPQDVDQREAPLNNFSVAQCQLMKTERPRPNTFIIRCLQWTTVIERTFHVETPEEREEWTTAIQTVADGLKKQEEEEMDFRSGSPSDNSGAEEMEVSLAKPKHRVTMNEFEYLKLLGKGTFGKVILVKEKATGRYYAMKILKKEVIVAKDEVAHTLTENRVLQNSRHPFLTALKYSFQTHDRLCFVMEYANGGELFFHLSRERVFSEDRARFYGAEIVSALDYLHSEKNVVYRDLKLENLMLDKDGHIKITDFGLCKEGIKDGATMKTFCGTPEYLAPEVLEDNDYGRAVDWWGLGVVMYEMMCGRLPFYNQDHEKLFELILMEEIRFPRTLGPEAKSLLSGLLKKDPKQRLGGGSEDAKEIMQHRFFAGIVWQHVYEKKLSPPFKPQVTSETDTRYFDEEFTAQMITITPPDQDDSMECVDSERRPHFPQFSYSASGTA
Description: (§1) Selectivity profiling assays were performed by the Invitrogen SelectScreen™ Services. […] The concentration of ATP was selected to be equal to the KM, unless indicated otherwise.

BRAF [2] = target: BRAF (Homo sapiens, UniProt P15056); assay: SelectScreen kinase assay
Chain of BRAF (Homo sapiens, UniProt P15056) (P15056 whole entry, species assumed): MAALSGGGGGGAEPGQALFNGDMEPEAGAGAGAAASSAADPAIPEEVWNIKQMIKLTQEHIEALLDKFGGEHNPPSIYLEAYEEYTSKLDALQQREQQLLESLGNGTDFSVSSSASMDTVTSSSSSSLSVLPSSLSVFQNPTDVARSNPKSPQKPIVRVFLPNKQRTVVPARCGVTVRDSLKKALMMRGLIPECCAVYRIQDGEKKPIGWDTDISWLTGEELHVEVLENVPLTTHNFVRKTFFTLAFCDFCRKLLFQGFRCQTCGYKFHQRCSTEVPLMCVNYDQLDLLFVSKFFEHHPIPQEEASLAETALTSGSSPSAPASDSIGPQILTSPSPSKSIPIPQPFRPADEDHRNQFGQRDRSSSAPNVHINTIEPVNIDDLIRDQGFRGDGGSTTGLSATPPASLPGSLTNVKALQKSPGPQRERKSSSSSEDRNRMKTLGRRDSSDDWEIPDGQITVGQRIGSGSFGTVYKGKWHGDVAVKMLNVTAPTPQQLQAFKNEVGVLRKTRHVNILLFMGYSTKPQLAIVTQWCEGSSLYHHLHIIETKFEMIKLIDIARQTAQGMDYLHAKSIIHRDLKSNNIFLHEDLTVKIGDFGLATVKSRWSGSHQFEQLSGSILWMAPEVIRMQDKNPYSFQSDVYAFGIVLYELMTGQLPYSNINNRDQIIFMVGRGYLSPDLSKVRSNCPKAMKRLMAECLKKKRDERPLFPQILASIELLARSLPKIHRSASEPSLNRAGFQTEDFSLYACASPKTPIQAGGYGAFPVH
Description: as §1

BRAF [3] = assay: SelectScreen kinase assay; settings: IC50 on that kinase divided by IC50 on FES^S700C
Description: as §1

CDK7/cyclin H/MNAT1 = CDK7/cyclin H/MNAT1 (Homo sapiens, UniProt P50613); assay: SelectScreen kinase assay
Chain of CDK7/cyclin H/MNAT1 (P50613 whole entry): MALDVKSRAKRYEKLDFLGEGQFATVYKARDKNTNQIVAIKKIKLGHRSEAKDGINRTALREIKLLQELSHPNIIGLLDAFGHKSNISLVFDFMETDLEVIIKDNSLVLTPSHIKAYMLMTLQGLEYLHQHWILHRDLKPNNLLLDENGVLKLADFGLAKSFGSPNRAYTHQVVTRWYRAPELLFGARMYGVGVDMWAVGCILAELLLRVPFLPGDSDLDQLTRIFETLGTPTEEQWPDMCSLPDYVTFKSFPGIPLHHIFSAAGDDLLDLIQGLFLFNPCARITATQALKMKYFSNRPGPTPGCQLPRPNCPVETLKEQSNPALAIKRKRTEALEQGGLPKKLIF
Chain of CDK7/cyclin H/MNAT1 (P51946 whole entry partner): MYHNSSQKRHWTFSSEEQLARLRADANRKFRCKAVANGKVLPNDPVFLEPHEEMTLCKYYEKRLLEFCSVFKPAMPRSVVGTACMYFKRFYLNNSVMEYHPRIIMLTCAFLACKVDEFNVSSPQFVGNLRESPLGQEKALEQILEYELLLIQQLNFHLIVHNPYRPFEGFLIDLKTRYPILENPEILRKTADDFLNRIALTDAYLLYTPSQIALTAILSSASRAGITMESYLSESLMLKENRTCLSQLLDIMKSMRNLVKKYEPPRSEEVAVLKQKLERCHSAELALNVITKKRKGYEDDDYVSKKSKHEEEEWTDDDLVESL
Chain of CDK7/cyclin H/MNAT1 (P51948 whole entry partner): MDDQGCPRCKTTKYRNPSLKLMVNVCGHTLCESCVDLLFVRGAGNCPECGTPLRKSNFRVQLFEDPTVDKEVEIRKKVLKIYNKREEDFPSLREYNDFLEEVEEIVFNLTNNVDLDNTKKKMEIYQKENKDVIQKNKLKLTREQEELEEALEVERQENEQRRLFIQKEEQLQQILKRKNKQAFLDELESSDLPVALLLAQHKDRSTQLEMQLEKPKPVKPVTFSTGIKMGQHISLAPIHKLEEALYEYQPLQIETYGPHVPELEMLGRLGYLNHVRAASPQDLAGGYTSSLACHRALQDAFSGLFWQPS
Description: as §1

DYRK3 = DYRK3 (Homo sapiens, UniProt O43781); assay: SelectScreen kinase assay
Chain of DYRK3 (O43781 whole entry): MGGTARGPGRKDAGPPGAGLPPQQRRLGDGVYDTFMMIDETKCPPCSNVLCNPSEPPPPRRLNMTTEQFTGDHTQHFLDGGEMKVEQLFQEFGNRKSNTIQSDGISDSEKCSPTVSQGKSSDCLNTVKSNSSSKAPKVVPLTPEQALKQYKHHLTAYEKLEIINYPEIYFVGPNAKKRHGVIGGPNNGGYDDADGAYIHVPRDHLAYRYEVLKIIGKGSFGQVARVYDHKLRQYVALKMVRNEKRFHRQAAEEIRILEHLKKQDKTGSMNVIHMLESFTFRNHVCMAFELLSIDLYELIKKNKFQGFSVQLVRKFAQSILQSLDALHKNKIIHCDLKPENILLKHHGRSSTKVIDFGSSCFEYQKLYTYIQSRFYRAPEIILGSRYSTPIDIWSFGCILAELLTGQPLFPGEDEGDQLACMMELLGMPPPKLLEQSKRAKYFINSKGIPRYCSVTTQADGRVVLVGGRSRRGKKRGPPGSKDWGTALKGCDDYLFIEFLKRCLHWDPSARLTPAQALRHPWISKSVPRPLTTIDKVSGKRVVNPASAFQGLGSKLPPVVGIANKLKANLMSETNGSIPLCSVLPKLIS
Description: as §1

FGFR2 = FGFR2 (Homo sapiens, UniProt P21802); assay: SelectScreen kinase assay; settings: for Inhibition at 1 µM (%): FGFR2, ZLYTE, ATP Km app
Chain of FGFR2 (P21802 22-821): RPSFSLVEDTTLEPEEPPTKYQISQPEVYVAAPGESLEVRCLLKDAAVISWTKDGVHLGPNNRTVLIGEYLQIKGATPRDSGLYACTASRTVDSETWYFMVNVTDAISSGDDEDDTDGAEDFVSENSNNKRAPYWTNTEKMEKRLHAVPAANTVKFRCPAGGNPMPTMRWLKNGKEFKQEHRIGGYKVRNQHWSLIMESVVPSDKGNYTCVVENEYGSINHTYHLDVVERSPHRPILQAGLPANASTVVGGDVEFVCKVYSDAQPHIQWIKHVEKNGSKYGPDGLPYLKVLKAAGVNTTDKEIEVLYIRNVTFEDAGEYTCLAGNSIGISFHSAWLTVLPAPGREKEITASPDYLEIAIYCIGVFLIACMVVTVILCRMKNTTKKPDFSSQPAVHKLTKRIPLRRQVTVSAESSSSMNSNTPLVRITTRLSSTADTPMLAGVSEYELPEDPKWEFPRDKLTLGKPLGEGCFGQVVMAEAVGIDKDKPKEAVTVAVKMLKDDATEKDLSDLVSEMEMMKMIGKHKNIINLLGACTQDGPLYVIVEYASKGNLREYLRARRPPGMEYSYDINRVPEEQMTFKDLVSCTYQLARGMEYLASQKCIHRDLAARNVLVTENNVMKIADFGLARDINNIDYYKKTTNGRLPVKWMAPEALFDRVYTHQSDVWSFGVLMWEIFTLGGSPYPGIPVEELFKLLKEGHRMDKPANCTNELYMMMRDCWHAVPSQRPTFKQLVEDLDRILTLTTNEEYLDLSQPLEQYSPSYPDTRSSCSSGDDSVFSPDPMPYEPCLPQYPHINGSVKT
Description: as §1

JAK3 = target: T1, JAK3 (Homo sapiens, UniProt P52333); assay: SelectScreen kinase assay
T1 sequence (P52333 1-1124): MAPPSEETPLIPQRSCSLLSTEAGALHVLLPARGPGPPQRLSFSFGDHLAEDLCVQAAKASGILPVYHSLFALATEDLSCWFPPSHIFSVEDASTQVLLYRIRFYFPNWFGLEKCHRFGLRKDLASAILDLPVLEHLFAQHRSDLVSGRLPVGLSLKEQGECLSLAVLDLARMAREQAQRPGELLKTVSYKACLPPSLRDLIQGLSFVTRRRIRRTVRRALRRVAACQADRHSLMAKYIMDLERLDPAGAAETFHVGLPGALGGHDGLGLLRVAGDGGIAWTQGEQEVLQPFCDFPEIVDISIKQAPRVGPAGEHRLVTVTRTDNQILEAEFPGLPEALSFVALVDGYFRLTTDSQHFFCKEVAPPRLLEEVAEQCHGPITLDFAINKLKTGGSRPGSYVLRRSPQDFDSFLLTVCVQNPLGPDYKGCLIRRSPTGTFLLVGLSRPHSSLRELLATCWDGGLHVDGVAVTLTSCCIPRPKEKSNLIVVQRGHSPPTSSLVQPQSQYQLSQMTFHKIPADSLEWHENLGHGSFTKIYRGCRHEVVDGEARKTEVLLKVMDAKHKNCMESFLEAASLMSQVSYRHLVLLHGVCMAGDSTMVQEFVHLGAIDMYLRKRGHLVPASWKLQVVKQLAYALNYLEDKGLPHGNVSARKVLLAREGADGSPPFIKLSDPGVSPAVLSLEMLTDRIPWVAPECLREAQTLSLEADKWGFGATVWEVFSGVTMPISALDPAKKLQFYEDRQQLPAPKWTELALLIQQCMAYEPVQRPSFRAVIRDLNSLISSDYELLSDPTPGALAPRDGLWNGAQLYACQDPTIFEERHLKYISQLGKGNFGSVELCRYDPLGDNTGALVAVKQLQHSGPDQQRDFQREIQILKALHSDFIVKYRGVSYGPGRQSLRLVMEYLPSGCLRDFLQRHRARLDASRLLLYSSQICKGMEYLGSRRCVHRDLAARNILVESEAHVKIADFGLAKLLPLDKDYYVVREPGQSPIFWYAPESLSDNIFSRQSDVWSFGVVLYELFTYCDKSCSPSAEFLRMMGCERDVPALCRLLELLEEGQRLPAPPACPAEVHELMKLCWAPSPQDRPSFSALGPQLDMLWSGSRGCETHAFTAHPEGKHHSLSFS
Description: as §1

RIPK3 = RIPK3 (Homo sapiens, UniProt Q9Y572); assay: SelectScreen kinase assay
Chain of RIPK3 (Q9Y572 whole entry): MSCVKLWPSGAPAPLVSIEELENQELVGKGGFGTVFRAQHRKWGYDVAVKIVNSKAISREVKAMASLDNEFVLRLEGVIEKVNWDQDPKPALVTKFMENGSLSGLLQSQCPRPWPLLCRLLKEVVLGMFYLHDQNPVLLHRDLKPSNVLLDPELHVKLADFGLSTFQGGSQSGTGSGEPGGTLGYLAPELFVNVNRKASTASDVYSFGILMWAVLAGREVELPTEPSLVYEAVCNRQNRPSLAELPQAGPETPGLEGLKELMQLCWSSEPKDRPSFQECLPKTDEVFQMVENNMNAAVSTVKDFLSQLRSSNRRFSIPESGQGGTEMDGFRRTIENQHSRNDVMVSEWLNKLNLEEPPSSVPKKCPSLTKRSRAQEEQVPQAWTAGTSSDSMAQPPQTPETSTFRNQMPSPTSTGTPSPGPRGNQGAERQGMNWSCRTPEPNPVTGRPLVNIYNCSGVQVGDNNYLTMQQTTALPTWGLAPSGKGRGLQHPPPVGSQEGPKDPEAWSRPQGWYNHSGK
Description: as §1

SGKL (SGK3) = SGKL (SGK3) (Homo sapiens, UniProt Q96BR1); assay: SelectScreen kinase assay
Chain of SGKL (SGK3) (Q96BR1 whole entry): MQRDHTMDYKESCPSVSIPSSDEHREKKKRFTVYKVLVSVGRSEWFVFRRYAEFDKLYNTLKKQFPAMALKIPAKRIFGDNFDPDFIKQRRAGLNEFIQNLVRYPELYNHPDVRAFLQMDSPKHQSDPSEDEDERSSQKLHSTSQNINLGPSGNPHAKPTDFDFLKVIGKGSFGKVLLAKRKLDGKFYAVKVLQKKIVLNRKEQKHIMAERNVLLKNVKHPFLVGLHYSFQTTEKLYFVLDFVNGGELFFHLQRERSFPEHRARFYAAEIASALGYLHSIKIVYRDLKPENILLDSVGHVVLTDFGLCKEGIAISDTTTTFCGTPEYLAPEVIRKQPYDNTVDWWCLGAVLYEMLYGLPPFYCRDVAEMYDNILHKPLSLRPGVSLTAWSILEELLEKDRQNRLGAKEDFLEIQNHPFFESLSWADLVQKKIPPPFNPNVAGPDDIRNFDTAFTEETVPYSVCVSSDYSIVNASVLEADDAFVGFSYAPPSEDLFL
Description: as §1

[4] = 1 h, 1 μM WEL028, 1 h preincubation

## C#CCOc1ccc(Nc2ncc(Cl)c(Nc3ccccc3NC(=O)C=C)n2)c(OC)c1 [Compound 6]
[1]; 1 μM screen vs FES^S700C
  Selectivity window against the residual 354 kinases: > 100 fold
[1]; out of 380 tested kinases, 1 μM, 1 h preincubation
  Number of kinases with >50% inhibition: 26
AKT1 (PKB alpha); [4]
  inhibition at 1 µM: -3%
AKT1 (PKB alpha)
  Inhibition at 1 µM (%): -2%
AKT1 (PKB alpha); listed as WEL028, 1 µM
  Inhibition at 1 µM (%): -4%
BRAF [2]
  IC50: 100 nM
BRAF [2]; [4]
  inhibition at 1 µM: 94%
BRAF [2]; 1 h, log[inhibitor] (M) -5.00, ZLYTE, ATP 100
  inhibition at 10 µM: 98%
BRAF [2]; 1 h, log[inhibitor] (M) -5.48, ZLYTE, ATP 100
  inhibition at 3.311 µM: 100%
BRAF [2]; 1 h, log[inhibitor] (M) -5.95, ZLYTE, ATP 100
  inhibition at 1.122 µM: 96%
BRAF [2]; 1 h, log[inhibitor] (M) -6.43, ZLYTE, ATP 100
  inhibition at 0.3715 µM: 65%
BRAF [2]; 1 h, log[inhibitor] (M) -6.91, ZLYTE, ATP 100
  inhibition at 0.123 µM: 53%
BRAF [2]; 1 h, log[inhibitor] (M) -7.39, ZLYTE, ATP 100
  inhibition at 0.04074 µM: 28%
BRAF [2]; 1 h, log[inhibitor] (M) -7.86, ZLYTE, ATP 100
  inhibition at 0.0138 µM: 15%
BRAF [2]; 1 h, log[inhibitor] (M) -8.82, ZLYTE, ATP 100
  inhibition at 0.001514 µM: 3%
BRAF [2]; BRAF, 1 µM, ZLYTE, ATP 100, listed as WEL028, 1 µM
  Inhibition at 1 µM (%): 97%
BRAF [2]; read-out: Inhibition at 1 µM (%), BRAF, 1 µM, ZLYTE, ATP 100
  inhibition at 1 µM: 90%
BRAF [3]
  Apparent fold selectivity: 25 fold
CDK7/cyclin H/MNAT1; [4]
  inhibition at 1 µM: 6%
CDK7/cyclin H/MNAT1; CDK7/cyclin H/MNAT1, 1 µM, Adapta, ATP Km app, listed as WEL028, 1 µM
  Inhibition at 1 µM (%): 2% and 11%
DYRK3; [4]
  inhibition at 1 µM: 2%
DYRK3; DYRK3, 1 µM, ZLYTE, ATP Km app, listed as WEL028, 1 µM
  Inhibition at 1 µM (%): 0% and 4%
FGFR2; [4]
  inhibition at 1 µM: 7%
FGFR2
  Inhibition at 1 µM (%): 11%
FGFR2; listed as WEL028, 1 µM
  Inhibition at 1 µM (%): 4%
JAK3; [4]
  inhibition at 1 µM: 14%
JAK3; JAK3, 1 µM, ZLYTE, ATP Km app, listed as WEL028, 1 µM
  Inhibition at 1 µM (%): 10%
JAK3; read-out: Inhibition at 1 µM (%), JAK3, 1 µM, ZLYTE, ATP Km app
  inhibition at 1 µM: 18%
RIPK3; [4]
  inhibition at 1 µM: 1%
RIPK3; read-out: Inhibition at 1 µM (%), 1 µM, LanthaScreen Binding
  inhibition at 1 µM: 2%
SGKL (SGK3); 1 µM, ZLYTE, ATP Km app, listed as WEL028, 1 µM
  Inhibition at 1 µM (%): -12% and -2%
SGKL (SGK3); [4]
  inhibition at 1 µM: -7%
